This passage reports inhibition zone and antimicrobial activities results from US12180200B1, “2-(benzo[d]oxazol-2-yl)-n′-(isonicotinoyloxy)acetimidamide as an antimicrobial compound” (KING FAISAL UNIVERSITY, priority 2023, dated 2024).

Assay type in all cases: cell-based
The test system of assay [1] is Chrysosporium keratinophilum. Description: Agar plate disc-diffusion, antifungal activity. As for the experimental part:
(§1) The agar plate disc-diffusion method was applied. […] The discs were then placed onto the surface of agar plates (nutrient agar for bacteria and Sabouraud's dextrose agar for fungi) seeded with the test organism. Each plate contained 15 mL of the agar medium, previously seeded with 0.2 mL of the broth culture of each organism pregrown for 18 hours. The plates were incubated at 37° C. for 48 hours, and 72 hours for fungi. The inhibition zones was measured in mm. Discs impregnated with DMSO were used as a control, and its inhibition zone was subtracted from the tested compound actual inhibition zone.
(A growth-free zone around the sample is the usual read-out of agar diffusion tests.)

The subject of another assay is Aspergillus flavus. Kind of assay: Agar plate disc-diffusion, antifungal activity. On the procedure:
as §1

Another assay concerns different microbes. Description: Antimicrobial activity screening (overall statement). The following applies: against different microbes (bacteria and fungi of Tables 1 and 2). On the procedure:
The agar plate disc-diffusion method was applied. Sterilized filter papers (6 mm in diameter) were wetted with 10 μL of a solution 2-(benzo[d]oxazol-2-yl)-N′-(isonicotinoyloxy)acetimidamide (3) to be tested, containing 10 mg/mL in DMSO, and the discs were allowed to air dry. The discs were then placed onto the surface of agar plates (nutrient agar for bacteria and Sabouraud's dextrose agar for fungi) seeded with the test organism. Each plate contained 15 mL of the agar medium, previously seeded with 0.2 mL of the broth culture of each organism pregrown for 18 hours. The plates were incubated at 37° C. for 48 hours, and 72 hours for fungi. The inhibition zones was measured in mm. Discs impregnated with DMSO were used as a control, and its inhibition zone was subtracted from the tested compound actual inhibition zone.

In another assay the test system is Pseudomonas aeruginosa. Kind of assay: Agar plate disc-diffusion, antibacterial activity. On the procedure: as §1
A further assay relates to Bacillus cereus. Kind of assay: Agar plate disc-diffusion, antibacterial activity. On the procedure: as §1
The test system of a further assay is Escherichia coli. Description: Agar plate disc-diffusion, antibacterial activity. As for the experimental part:
as §1

In the next assay the test system is Staphylococcus aureus. Description: Agar plate disc-diffusion, antibacterial activity. As for the experimental part: as §1
Setting [2] is: A = concentration of comp. = 10,000 μL.
The mark [3] stands for this setting: B = concentration of comp. = 30,000 μL.
The mark [4] stands for this setting: C = concentration of comp. = 50,000 μL.

As for `N/C(Cc1nc2ccccc2o1)=N\OC(=O)c1ccncc1` [Compound 3, 2-(benzo[d]oxazol-2-yl)-N′-(isonicotinoyloxy)acetimidamide], the inhibition zone was 26 mm in assay [1] (setting [2]); 29 mm in assay [1] (setting [3]); 48 mm in assay [1] (setting [4]); 20 mm in the assay with Aspergillus flavus (setting [2]); 24 mm in the assay on Aspergillus flavus (setting [3]); 35 mm in the assay with Aspergillus flavus (setting [4]). Further, the inhibition zone is given as 25 mm with Pseudomonas aeruginosa (setting [2]); 29 mm in the assay with Pseudomonas aeruginosa (setting [3]); 50 mm with Pseudomonas aeruginosa (setting [4]); 25 mm with Bacillus cereus (setting [2]); 27 mm in the assay on Bacillus cereus (setting [3]); 36 mm in the assay with Bacillus cereus (setting [4]). Further, the inhibition zone with Escherichia coli (setting [2]) worked out at 27 mm; in the assay with Escherichia coli (setting [3]), 36 mm; with Escherichia coli (setting [4]) it was 52 mm; in the assay with Staphylococcus aureus (setting [2]), 17 mm; with Staphylococcus aureus (B =) it was 24 mm; in the assay with Staphylococcus aureus (setting [4]), 30 mm. Moreover, the antimicrobial activities result with different microbes was “excellent antimicrobial activities”.

In the case of `O=C(O)c1cn(C2CC2)c2cc(N3CCNCC3)c(F)cc2c1=O` [Cip., ciprofloxacin, reference compound], the inhibition zone is given as 29 mm in assay [1] (setting [2]); 30 mm in assay [1] (setting [3]); 53 mm in assay [1] (setting [4]); 29 mm in the assay with Aspergillus flavus (setting [2]); 30 mm with Aspergillus flavus (setting [3]); 42 mm in the assay with Aspergillus flavus (setting [4]). Further, the inhibition zone is 29 mm in the assay with Pseudomonas aeruginosa (setting [2]); 30 mm in the assay with Pseudomonas aeruginosa (setting [3]); 53 mm in the assay on Pseudomonas aeruginosa (setting [4]); 29 mm in the assay with Bacillus cereus (setting [2]); 30 mm with Bacillus cereus (setting [3]); 42 mm in the assay with Bacillus cereus (setting [4]). Also, the inhibition zone amounted to 30 mm in the assay on Escherichia coli (setting [2]); 39 mm with Escherichia coli (setting [3]); 60 mm with Escherichia coli (setting [4]); 43 mm with Staphylococcus aureus (setting [2]); 44 mm with Staphylococcus aureus (B =); 53 mm in the assay on Staphylococcus aureus (setting [4]).
